Read-outs that look alike come from different tables or passages of the source.
Experiments:
TC-174 = assay: Cell viability assay (MTT), 72 h; assay type: cell-based; settings: TC-174 (ES), read-out: GDC-0941 cell viability IC50
RD = assay: Cell viability assay (MTT), 72 h; assay type: cell-based; settings: Homo sapiens, RD (RMS), read-out: GDC-0941 cell viability IC50
SJSA = assay: Cell viability assay (MTT), 72 h; assay type: cell-based; settings: SJSA (OS), read-out: GDC-0941 cell viability IC50
KHOS = assay: Cell viability assay (MTT), 72 h; assay type: cell-based; settings: KHOS (OS), read-out: GDC-0941 cell viability IC50
A4573 = assay: Cell viability assay (MTT), 72 h; assay type: cell-based; settings: A4573 (ES), read-out: GDC-0941 cell viability IC50
A204 = assay: Cell viability assay (MTT), 72 h; assay type: cell-based; settings: Homo sapiens, A204 (RMS), read-out: GDC-0941 cell viability IC50
HOS = assay: Cell viability assay (MTT), 72 h; assay type: cell-based; settings: Homo sapiens, HOS (OS), read-out: GDC-0941 cell viability IC50
osteosarcoma [1] = settings: cited from earlier work
osteosarcoma [2] = test system: osteosarcoma; parameters: method as in PMID 24961790, PMID 24333720; settings: cited from earlier work
[3] = test system: pediatric tumor cell lines; parameters: method as in PMID 23002019; settings: panel of pediatric tumor cell lines, including sarcomas; read-out: median relative IC50; cited from earlier work
[4] = test system: chronic lymphocytic leukemia; settings: cited from earlier work
TC-32 = assay: Cell viability assay (MTT), 72 h; assay type: cell-based; settings: TC-32 cells
[5] = test system: bone and soft-tissue sarcomas; parameters: method as in PMID 23477833; settings: combination with the mTOR inhibitor temsirolimus; phase II; patients with bone and soft-tissue sarcomas; cited from earlier work

CS(=O)(=O)N1CCN(Cc2cc3nc(-c4cccc5[nH]ncc45)nc(N4CCOCC4)c3s2)CC1 [GDC-0941, pictilisib]
IC50 (TC-174): 170 nM
IC50 (RD): 278 nM
IC50 (SJSA): 297 nM
IC50 (KHOS): 1200 nM
IC50 (A4573): 376 nM
IC50 (A204): 27.1 nM
IC50 (HOS): 161 nM

Cn1c(=O)n(-c2ccc(C(C)(C)C#N)cc2)c2c3cc(-c4cnc5ccccc5c4)ccc3ncc21 [NVP-BEZ235]
tumor growth in vivo (osteosarcoma [1]): inhibited
in vitro cellular proliferation (osteosarcoma [2]): inhibited

Cc1nc(NC(=O)N2CCC[C@H]2C(N)=O)sc1-c1ccnc(C(C)(C)C(F)(F)F)c1 [NVP-BYL719]
tumor growth in vivo (osteosarcoma [1]): inhibited
tumor growth (osteosarcoma [1]; combined with the chemotherapeutic agent ifosfamide): synergistically inhibited tumor growth
in vitro cellular proliferation (osteosarcoma [2]): inhibited

COc1ccc(Cl)c(Nc2nc3ccccc3nc2NS(=O)(=O)c2cccc(NC(=O)C(C)(C)N)c2)c1 [SAR245408]
IC50 [3]: 10.9 µM

CC[C@H](Nc1ncnc2[nH]cnc12)c1nc2cccc(F)c2c(=O)n1-c1ccccc1 [idelalisib]
overall response rate ([4]; combined with rituximab): 81%
overall response rate ([4]; single agent): 72%

CC(=O)Nc1cccc(-n2c(=O)n(C3CC3)c(=O)c3c(Nc4ccc(I)cc4F)n(C)c(=O)c(C)c32)c1 [tramenitib, trametinib]
cytotoxicity as single agent (TC-32): no tramenitib cytotoxicity was observed

cixutmumuab: IGF1R antibody, evaluated in combination with the mTOR inhibitor temsirolimus
response rate [5]: 15%
